Data reported in patent publication US6716613B1, “Metalloprotease having aggrecanase activity” (Yamanouchi Pharmaceutical Co., Ltd., priority 1999, dated 2004).
pIC50: −log10 of the molar value.

Experiments:
[1] = system: MDTS6 mRNA; test: Induction of MDTS6 mRNA expression in rabbit knee joint cartilage primary culture cells (RT-PCR); assay type: cell-based; details: 10 ng/ml of IL-1β or 10 μM of all-trans retinoic acid; 2 and 6 hours
Experimental: After 3 days of culturing of the rabbit knee joint cartilage primary culture cells of 6 well plate described in Example 11-1 by changing the medium to ascorbic acid medium, 10 ng/ml of IL-1β or 10 μM of all-trans retinoic acid was added thereto, and total RNA samples 2 and 6 hours thereafter were prepared using ISOGEN (mfd. by Nippon Gene) in accordance with the attached instructions. Each of the samples was treated with DNase I (mfd. by Nippon Gene), subjected to phenol/chloroform treatment and then recovered by ethanol precipitation, and the thus purified total RNA was dissolved in DEPC-treated sterile water. Using random hexamers as primers, 1 μg of this total RNA was subjected to reverse transcription reaction and RNase H treatment using Thermoscript™ RT-PCR System (mfd. by GIBCO-BRL, catalog number 11146-016) in accordance with the attached instructions, and the product was diluted 10 times with sterile water and used as a cDNA sample. Using 5 μl of each of the thus obtained cDNA samples as the template and the oligoDNA sequences represented by SEQ ID NO:18 and SEQ ID NO:19 as primers, PCR was carried out under a condition of 94° C. for 2 minutes, 45 repetitions of a cycle of 94° C. for 30 seconds, 65° C. for 30 seconds and 72° C. for 30 seconds, and subsequent 72° C. for 10 minutes. […]

[2] = system: rabbit knee joint cartilage primary culture cells; test: Proteoglycan degradation/release in rabbit knee joint cartilage primary culture cells (35S label); assay type: cell-based; details: for release of proteoglycan (increase in radioactivity of culture supernatant): stimulation with 0.01 to 10 ng/ml IL-1β or 0.1 to 10 μM all-trans retinoic acid, 0, 24, 48 hours of culturing
Experimental: After killing a rabbit (Japanese white species, male, 1.0 to 1.5 kg) under excess anesthesia, a knee joint was excised and the cartilage layer on the joint surface was removed and finely cut using a surgical knife. The cut pieces were treated with trypsin-EDTA (0.25%-1 mM; mfd. by GIBCO-BRL) at 37° C. for 1 hour and then centrifuged at 1,500 rpm for 5 minutes, and the resulting precipitate was washed with DMEM. This was treated with collagenase A (0.15%; Boehringer-Mannheim)/DMEM at 37° C. for 3 to 4 hours, and then a nylon mesh filter (100 μm, mfd. by Falcon)-passed fraction was centrifuged at 1,500 rpm for 5 minutes to effect precipitation of cartilage cells. The cells were thoroughly washed with DMEM/10% FBS medium, suspended in DMEM/10% FBS medium to a density of 2×10^5 cells/ml and then inoculated in 200 μl/well portions into an I type collagen-coated 96 well plate (mfd. by Asahi Technoglass). Three days thereafter, the medium was changed to 200 μof DMEM/10% FBS medium containing 50 μg/ml of ascorbic acid (ascorbic acid medium hereinafter), and the culturing was continued for 3 days. When an I type collagen-coated 6 well plate (Asahi Technoglass) was used, the cell suspension was inoculated in 6 ml/well portions and cultured by carrying out the same medium exchange. These cells were used in the following test.
The rabbit knee joint cartilage primary culture cells of 96 well plate described in Example 11-1 were cultured for 2 days using 200 μl of the ascorbic acid medium supplemented with 10 μCi/ml in final concentration of Na2^35SO4 and labeled therewith, washed 3 times with 200 μl of the ascorbic acid medium and then cultured for 1 day using 200 μl of the ascorbic acid medium. After stimulation with IL-1β or all-trans retinoic acid and subsequent 0, 24, and 48 hours of culturing, the culture supernatants were recovered in 20 μl portions, and the radioactivity was measured using Top Count (mfd. by Packard).
Each of the compounds A, B, C and D selected by the screening system of Example 10-2 was added to the proteoglycan degradation system of rabbit knee joint cartilage primary culture cells just before the stimulation with 10 μM of all-trans retinoic acid, and their proteoglycan degradation inhibitory activities were examined.

[3] = target: T1, MDTS6Cys (Homo sapiens, UniProt Q8TE58); test: ELISA screening system for aggrecanase activity inhibition (anti-aggrecanase neoepitope antibody); assay type: biochemical; details: MDTS6Cys culture supernatant, recombinant aggrecan G1G2 substrate, 37° C. for several hours; read-out: aggrecanase activity inhibition strength (IC50)
T1 construct: made in house; host or cells: HEK293-EBNA cells; unpurified culture supernatant used as enzyme source
T1 sequence (Q8TE58 213-687): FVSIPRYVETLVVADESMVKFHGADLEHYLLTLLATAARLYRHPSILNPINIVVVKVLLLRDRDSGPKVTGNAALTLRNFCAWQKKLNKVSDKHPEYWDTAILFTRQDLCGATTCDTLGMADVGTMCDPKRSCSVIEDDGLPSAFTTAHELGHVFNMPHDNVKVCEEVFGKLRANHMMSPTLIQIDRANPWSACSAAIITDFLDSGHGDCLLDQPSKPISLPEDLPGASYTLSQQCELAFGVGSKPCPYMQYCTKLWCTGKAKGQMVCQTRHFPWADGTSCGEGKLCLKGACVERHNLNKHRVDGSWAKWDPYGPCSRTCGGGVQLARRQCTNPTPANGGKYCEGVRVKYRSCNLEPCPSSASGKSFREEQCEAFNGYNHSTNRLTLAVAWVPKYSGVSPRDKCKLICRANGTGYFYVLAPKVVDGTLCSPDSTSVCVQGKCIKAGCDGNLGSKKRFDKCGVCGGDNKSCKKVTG
Experimental: The criterion to screen a substance which inhibits the aggrecanase activity is preferably 10 μM or less, more preferably 1.0 μM or less, as inhibition activity strength (IC50)

[4] = system: MDTS6 mRNA; test: Expression induction of MDTS6 mRNA in ATDC5 cells (RT-PCR); assay type: cell-based, mouse; details: insulin-differentiated, IL-1β 5 ng/ml for 0, 1, 2, 4 or 8 hours
Experimental: It is known that a mouse cell strain ATDC5 is differentiated into a chondrocyte-like cell by insulin treatment (Atsumi T. et al., Cell Differ. Dev., 30, 109-116, 1990). The ATDC5 cells were inoculated in 4×10^5/well portions into an I type collagen-coated 6 well plate (mfd. by Asahi Technoglass) and cultured for 2 days using DMEM/HamF12 (1:1)/5% FCS medium, the medium was changed to DMEM/HamF12 (1:1)/5% FCS medium containing insulin (final concentration 30 ng/ml) and 50 μg/ml of L-ascorbic acid and the culturing was continued for 5 days, and then the resulting cells were treated for 0, 1, 2, 4 or 8 hours by adding IL-1β (final concentration 5 ng/ml). Total RNA was prepared from each of the treated groups using ISOGEN (mfd. by Nippon Gene), and RT-PCR was carried out using 1 μg portion thereof as the template and using BcaBEST™ RNA PCR Kit (mfd. by Takara Shuzo). The reverse transcription reaction was carried out using Oligo dT-Adaptor Primer as the primer in accordance with the attached instructions, and PCR was carried out using oligoDNA sequences represented by SEQ ID NO:15 and SEQ ID NO:16 as primers, which had been synthesized based on the 3′ non-translation region of MDTS6, by the reaction of 94° C. for 2 minutes, 40 repetitions of a cycle of 94° C. for 30 seconds, 60° C. for 30 seconds and 72° C. for 30 seconds, and subsequent 72° C. for 7 minutes. […]

pIC50 [3]	Compound	expression of the MDTS6 mRNA [1]	release of proteoglycan (increase in radioactivity of culture supernatant) [2]	inhibition of proteoglycan degradation (in words, FIG. 8) ([2]; compound added just before stimulation with 10 μM of all-trans retinoic acid)	expression of the MDTS6 mRNA [4]
	CC1=C(/C=C/C(C)=C/C=C/C(C)=C/C(=O)O)C(C)(C)CCC1 [all-trans retinoic acid, reference compound]	induced	concentration-dependent and strong radioactivity, namely release of proteoglycan, was observed		
6.00	CNC(=O)[C@H](Cc1ccccc1)NC(=O)C(CC(C)C)C(CS)C(=O)NO (stereo partly drawn) [compound B, N^α-[2-(1-hydroxycarbamoyl-2-sulfanylethyl)-4-methylpentanoyl]-N-methylphenylalanineamide]			inhibition of proteoglycan degradation in a concentration-dependent manner	
	IL-1β: cytokine used to stimulate proteoglycan release and MDTS6 mRNA expression	induced	increase in the radioactivity, namely release of proteoglycan, was observed		transiently induced
